# According to paper PMC12748989 (Nature Communications, 2025):
# How the values were obtained:
# PBMC = details: 12.5 µM
Structure (SMILES),"Average (percentage cell inhibition), Dmastoparan MDA-MB231 12.5uM (MDA-MB-231 cells) [%]","Average (percentage cell inhibition), Mastoparan PBMC (PBMC) [%]"
CC[C@H](C)[C@H](N)C(=O)N[C@@H](CC(N)=O)C(=O)N[C@@H](CC(C)C)C(=O)N[C@H](C(=O)N[C@@H](C)C(=O)N[C@@H](CC(C)C)C(=O)N[C@@H](C)C(=O)N[C@@H](C)C(=O)N[C@@H](CC(C)C)C(=O)N[C@@H](C)C(=O)N[C@@H](CCCCN)C(=O)N[C@@H](CCCCN)C(=O)N[C@H](C(=O)N[C@@H](CC(C)C)C(N)=O)[C@@H](C)CC)[C@@H](C)O [T4],29.8701,12.9948
CC[C@H](C)[C@H](N)C(=O)N[C@@H](CC(N)=O)C(=O)N[C@@H](CC(C)C)C(=O)N[C@@H](CCCCN)C(=O)N[C@H](C(=O)N[C@@H](CC(C)C)C(=O)N[C@@H](C)C(=O)N[C@@H](C)C(=O)N[C@@H](CC(C)C)C(=O)N[C@@H](C)C(=O)N[C@@H](CCCCN)C(=O)N[C@@H](CCCCN)C(=O)N[C@H](C(=O)N[C@@H](CC(C)C)C(N)=O)[C@@H](C)CC)[C@@H](C)O [T5],39.042,12.9165
CC[C@H](C)[C@H](N)C(=O)N[C@@H](CC(N)=O)C(=O)N[C@@H](CC(C)C)C(=O)N[C@@H](CCCCN)C(=O)N[C@@H](C)C(=O)N[C@H](C(=O)N[C@@H](C)C(=O)N[C@@H](C)C(=O)N[C@@H](CC(C)C)C(=O)N[C@@H](C)C(=O)N[C@@H](CCCCN)C(=O)N[C@@H](CCCCN)C(=O)N[C@H](C(=O)N[C@@H](CC(C)C)C(N)=O)[C@@H](C)CC)[C@@H](C)O [T6],9.306,0.8912
CC[C@H](C)[C@H](N)C(=O)N[C@@H](CC(N)=O)C(=O)N[C@@H](CC(C)C)C(=O)N[C@@H](CCCCN)C(=O)N[C@@H](C)C(=O)N[C@@H](CC(C)C)C(=O)N[C@H](C(=O)N[C@@H](C)C(=O)N[C@@H](CC(C)C)C(=O)N[C@@H](C)C(=O)N[C@@H](CCCCN)C(=O)N[C@@H](CCCCN)C(=O)N[C@H](C(=O)N[C@@H](CC(C)C)C(N)=O)[C@@H](C)CC)[C@@H](C)O [T7],29.9324,3.741
CC[C@H](C)[C@H](N)C(=O)N[C@@H](CC(N)=O)C(=O)N[C@@H](CC(C)C)C(=O)N[C@@H](CCCCN)C(=O)N[C@@H](C)C(=O)N[C@@H](CC(C)C)C(=O)N[C@@H](C)C(=O)N[C@H](C(=O)N[C@@H](CC(C)C)C(=O)N[C@@H](C)C(=O)N[C@@H](CCCCN)C(=O)N[C@@H](CCCCN)C(=O)N[C@H](C(=O)N[C@@H](CC(C)C)C(N)=O)[C@@H](C)CC)[C@@H](C)O [T8],35.9719,11.6569
CC[C@H](C)[C@H](N)C(=O)N[C@@H](CC(N)=O)C(=O)N[C@@H](CC(C)C)C(=O)N[C@@H](CCCCN)C(=O)N[C@@H](C)C(=O)N[C@@H](CC(C)C)C(=O)N[C@@H](C)C(=O)N[C@@H](C)C(=O)N[C@H](C(=O)N[C@@H](C)C(=O)N[C@@H](CCCCN)C(=O)N[C@@H](CCCCN)C(=O)N[C@H](C(=O)N[C@@H](CC(C)C)C(N)=O)[C@@H](C)CC)[C@@H](C)O [T9],18.2148,2.309
CC[C@H](C)[C@H](N)C(=O)N[C@@H](CC(N)=O)C(=O)N[C@@H](CC(C)C)C(=O)N[C@@H](CCCCN)C(=O)N[C@@H](C)C(=O)N[C@@H](CC(C)C)C(=O)N[C@@H](C)C(=O)N[C@@H](C)C(=O)N[C@@H](CC(C)C)C(=O)N[C@H](C(=O)N[C@@H](CCCCN)C(=O)N[C@@H](CCCCN)C(=O)N[C@H](C(=O)N[C@@H](CC(C)C)C(N)=O)[C@@H](C)CC)[C@@H](C)O [T10],27.2715,8.853
CC[C@H](C)[C@H](N)C(=O)N[C@@H](CC(N)=O)C(=O)N[C@@H](CC(C)C)C(=O)N[C@@H](CCCCN)C(=O)N[C@@H](C)C(=O)N[C@@H](CC(C)C)C(=O)N[C@@H](C)C(=O)N[C@@H](C)C(=O)N[C@@H](CC(C)C)C(=O)N[C@@H](C)C(=O)N[C@H](C(=O)N[C@@H](CCCCN)C(=O)N[C@H](C(=O)N[C@@H](CC(C)C)C(N)=O)[C@@H](C)CC)[C@@H](C)O [T11],32.1267,10.2886
CC[C@H](C)[C@H](N)C(=O)N[C@@H](CC(N)=O)C(=O)N[C@@H](CC(C)C)C(=O)N[C@@H](CCCCN)C(=O)N[C@@H](C)C(=O)N[C@@H](CC(C)C)C(=O)N[C@@H](C)C(=O)N[C@@H](C)C(=O)N[C@@H](CC(C)C)C(=O)N[C@@H](C)C(=O)N[C@@H](CCCCN)C(=O)N[C@H](C(=O)N[C@H](C(=O)N[C@@H](CC(C)C)C(N)=O)[C@@H](C)CC)[C@@H](C)O [T12],27.1643,10.5164
CC[C@H](C)[C@H](N)C(=O)N[C@@H](CC(N)=O)C(=O)N[C@@H](CC(C)C)C(=O)N[C@@H](CCCCN)C(=O)N[C@@H](C)C(=O)N[C@@H](CC(C)C)C(=O)N[C@@H](C)C(=O)N[C@@H](C)C(=O)N[C@@H](CC(C)C)C(=O)N[C@@H](C)C(=O)N[C@@H](CCCCN)C(=O)N[C@@H](CCCCN)C(=O)N[C@H](C(=O)N[C@@H](CC(C)C)C(N)=O)[C@@H](C)O [T13],38.2444,3.307
CC[C@H](C)[C@H](N)C(=O)N[C@@H](CC(N)=O)C(=O)N[C@@H](CC(C)C)C(=O)N[C@@H](CCCCN)C(=O)N[C@@H](C)C(=O)N[C@@H](CC(C)C)C(=O)N[C@@H](C)C(=O)N[C@@H](C)C(=O)N[C@@H](CC(C)C)C(=O)N[C@@H](C)C(=O)N[C@@H](CCCCN)C(=O)N[C@@H](CCCCN)C(=O)N[C@H](C(=O)N[C@H](C(N)=O)[C@@H](C)O)[C@@H](C)CC [T14],36.2451,6.663
CC[C@H](C)[C@H](NC(=O)[C@H](CCCCN)NC(=O)[C@H](CCCCN)NC(=O)[C@H](C)NC(=O)[C@H](CC(C)C)NC(=O)[C@H](C)NC(=O)[C@H](C)NC(=O)[C@H](CC(C)C)NC(=O)[C@H](C)NC(=O)[C@H](CCCCN)NC(=O)[C@H](CC(C)C)NC(=O)[C@H](CC(N)=O)NC(=O)[C@@H](N)C(C)C)C(=O)N[C@@H](CC(C)C)C(N)=O [V1],28.5856,10.9012
CC[C@H](C)[C@H](N)C(=O)N[C@H](C(=O)N[C@@H](CC(C)C)C(=O)N[C@@H](CCCCN)C(=O)N[C@@H](C)C(=O)N[C@@H](CC(C)C)C(=O)N[C@@H](C)C(=O)N[C@@H](C)C(=O)N[C@@H](CC(C)C)C(=O)N[C@@H](C)C(=O)N[C@@H](CCCCN)C(=O)N[C@@H](CCCCN)C(=O)N[C@H](C(=O)N[C@@H](CC(C)C)C(N)=O)[C@@H](C)CC)C(C)C [V2],91.4206,65.6691
CC[C@H](C)[C@H](N)C(=O)N[C@@H](CC(N)=O)C(=O)N[C@H](C(=O)N[C@@H](CCCCN)C(=O)N[C@@H](C)C(=O)N[C@@H](CC(C)C)C(=O)N[C@@H](C)C(=O)N[C@@H](C)C(=O)N[C@@H](CC(C)C)C(=O)N[C@@H](C)C(=O)N[C@@H](CCCCN)C(=O)N[C@@H](CCCCN)C(=O)N[C@H](C(=O)N[C@@H](CC(C)C)C(N)=O)[C@@H](C)CC)C(C)C [V3],35.8976,-4.825
